The values that follow are results of earlier work, collected in patent US20030099724A1, “Compounds for prevention of diabetic retinopathy” (priority 2001, published 2003).

One series concerns diabetic retinopathy. Particulars: rat models.

SMILES strings stand for the structures.

As to `N=C(N)NN` [amino guanidine], the “progression of diabetic retinopathy” value with diabetic retinopathy is given as “retards the progression of diabetic retinopathy”. With `CCOC(=O)C1=C(COCCN)NC(C)=C(C(=O)OC)C1c1ccccc1Cl` (stereo not drawn) [Amlodipine besylate, amlodipine besylate], the solubility in alcohol result (alcohol) is reported as “sparingly soluble”. Also, for the setting “water”, the solubility in water entry is listed as “slightly soluble”.
